Measured values: ChEMBL document CHEMBL5055642, “Strobiloscyphones A-F, 6-Isopentylsphaeropsidones and Other Metabolites from Strobiloscypha sp. AZ0266, a Leaf-Associated Fungus of Douglas Fir” (J Nat Prod, 2021)
Converted amounts (≈) assume the structure as drawn. The source made the active and inactive calls. The rule behind the calls is not given here.

Columns and labels:
[1] = test system: PC-3M; experiment: Cytotoxicity against human PC-3M cells assessed as inhibition of cell proliferation up to 10 uM measured after 72 hrs by resazurin dye based AlamarBlue assay; assay type: functional
[2] = test system: NCI-H460; experiment: Cytotoxicity against human NCI-H460 cells assessed as inhibition of cell proliferation up to 10 uM measured after 72 hrs by resazurin dye based AlamarBlue assay; assay type: functional
[3] = test system: SF-268; experiment: Cytotoxicity against human SF-268 cells assessed as inhibition of cell proliferation up to 10 uM measured after 72 hrs by resazurin dye based AlamarBlue assay; assay type: functional
[4] = test system: MCF7; experiment: Cytotoxicity against human MCF7 cells assessed as inhibition of cell proliferation up to 10 uM measured after 72 hrs by resazurin dye based AlamarBlue assay; assay type: functional
[5] = test system: MDA-MB-231; experiment: Cytotoxicity against human MDA-MB-231 cells assessed as inhibition of cell proliferation up to 10 uM measured after 72 hrs by resazurin dye based AlamarBlue assay; assay type: functional
[6] = test system: WI-38; experiment: Cytotoxicity against human WI-38 cells assessed as inhibition of cell proliferation up to 10 uM measured after 72 hrs by resazurin dye based AlamarBlue assay; conditions: wi-38, 72 h
[7] = test system: PC-3M; experiment: Cytotoxicity against human PC-3M cells assessed as inhibition of cell proliferation measured after 72 hrs by resazurin dye based AlamarBlue assay; assay type: functional
[8] = test system: NCI-H460; experiment: Cytotoxicity against human NCI-H460 cells assessed as inhibition of cell proliferation measured after 72 hrs by resazurin dye based AlamarBlue assay; assay type: functional; conditions: NCI-H460, 72 h
[9] = test system: MDA-MB-231; experiment: Cytotoxicity against human MDA-MB-231 cells assessed as inhibition of cell proliferation measured after 72 hrs by resazurin dye based AlamarBlue assay; assay type: functional; conditions: MDA-MB-231, 72 h
[10] = test system: SF-268; experiment: Cytotoxicity against human SF-268 cells assessed as inhibition of cell proliferation measured after 72 hrs by resazurin dye based AlamarBlue assay; assay type: functional; conditions: SF-268, 72 h
[11] = test system: MCF7; experiment: Cytotoxicity against human MCF7 cells assessed as inhibition of cell proliferation measured after 72 hrs by resazurin dye based AlamarBlue assay; assay type: functional; conditions: MCF7, 72 h
[12] = test system: WI-38; experiment: Cytotoxicity against human WI-38 cells assessed as inhibition of cell proliferation measured after 72 hrs by resazurin dye based AlamarBlue assay; conditions: WI-38, 72 h
[13] = test system: Escherichia coli; experiment: Antibacterial activity against Escherichia coli ATCC 25922 assessed as inhibition of bacterial growth incubated for 24 hrs by CLSI method; assay type: functional
[14] = test system: Pseudomonas aeruginosa; experiment: Antibacterial activity against Pseudomonas aeruginosa ATCC 10197 assessed as inhibition of bacterial growth incubated for 24 hrs by CLSI method; assay type: functional
[15] = test system: Staphylococcus aureus; experiment: Antibacterial activity against Staphylococcus aureus ATCC 25923 assessed as inhibition of bacterial growth incubated for 24 hrs by CLSI method; assay type: functional
[16] = test system: Candida albicans; experiment: Antifungal activity against Candida albicans ATCC 10261 assessed as inhibition of fungus growth incubated for 24 hrs by CLSI method; assay type: functional
[17] = test system: Pseudomonas aeruginosa; experiment: Antibacterial activity against Pseudomonas aeruginosa ATCC 10197 assessed as inhibition of bacterial growth at 25 ug/ml incubated for 24 hrs by CLSI method relative to control; assay type: functional
[18] = test system: Escherichia coli; experiment: Antibacterial activity against Escherichia coli ATCC 25922 assessed as inhibition of bacterial growth at 12.5 ug/ml incubated for 24 hrs by CLSI method relative to control; assay type: functional
[19] = test system: Candida albicans; experiment: Antifungal activity against Candida albicans ATCC 10261 assessed as inhibition of fungal growth at 12.5 ug/ml incubated for 24 hrs by CLSI method relative to control; assay type: functional
[20] = test system: Candida albicans; experiment: Antifungal activity against Candida albicans ATCC 10261 assessed as inhibition of fungal growth at 6.25 ug/ml incubated for 24 hrs by CLSI method relative to control; assay type: functional
[21] = test system: Candida albicans; experiment: Antifungal activity against Candida albicans ATCC 10261 assessed as inhibition of fungal growth at 100 ug/ml incubated for 24 hrs by CLSI method relative to control; assay type: functional
[22] = test system: Candida albicans; experiment: Antifungal activity against Candida albicans ATCC 10261 assessed as inhibition of fungal growth at 50 ug/ml incubated for 24 hrs by CLSI method relative to control; assay type: functional

Row | SMILES | Activity [1] | Activity [2] | Activity [3] | Activity [4] | Activity [5] | Activity [6] | IC50 [7] [nM] | IC50 [9] [nM] | IC50 [10] [nM] | IC50 [11] [nM] | also measured
1 | COC1=CC(=O)[C@@](O)([C@@H](C=C(C)C)OC(C)=O)CC1=O | inactive | inactive | inactive | inactive | inactive | Non-Toxic |  |  |  |  | 
2 | COc1cccc2c1C(=O)c1c(O)c3c(c(O)c1C2=O)C[C@@](O)(C(=O)CO)C[C@@H]3O[C@H]1C[C@H](N)[C@H](O)[C@H](C)O1 [DOXORUBICIN] |  |  |  |  |  |  | 300 | 700 |  |  | IC50 [8]: 100 nM
3 | COC1=CC(=O)[C@H]2O[C@H]2C1=O |  |  |  |  |  |  | 2500 | 2200 | 1200 | 1400 | IC50 [8]: 2500 nM; IC50 [12]: 7800 nM; MBC [13]: 25 µg/mL (≈ 162 µM); MIC [13]: 25 µg/mL (≈ 162 µM); MIC [14]: 25 µg/mL (≈ 162 µM); MIC [15]: 25 µg/mL (≈ 162 µM); MFC [16]: 25 µg/mL (≈ 162 µM); MIC [16]: 25 µg/mL (≈ 162 µM); inhibition at 25 µg/mL [17]: 50%; inhibition at 12.5 µg/mL [18]: 75%; inhibition at 12.5 µg/mL [19]: 75%; inhibition at 6.25 µg/mL [20]: 50%
4 | COC1=CC(=O)C(O)(C(O)CC(C)(C)O)C[C@H]1O (some centres not stated) | inactive | inactive | inactive | inactive | inactive | Non-Toxic |  |  |  |  | 
5 | CCCCCCC(=O)C(O)C(O)/C=C/C=C/C=C\C(=O)O (configuration not stated) | inactive | inactive | inactive | inactive | inactive | Non-Toxic |  |  |  |  | 
6 | COC1=CC(=O)[C@@]2([C@H](O)C=C(C)C)O[C@H]2C1=O |  |  |  |  |  |  | 4600 | 2600 | 1300 | 1600 | IC50 [8]: 4800 nM; IC50 [12]: 8300 nM
7 | COC1=CC(=O)[C@@]2([C@@H](O)C=C(C)C)O[C@H]2[C@H]1O | inactive | inactive | inactive | inactive | inactive | Non-Toxic |  |  |  |  | 
8 | COC1=CC(=O)[C@@]2([C@H](C=C(C)C)OC(C)=O)O[C@]3(OC)CC(=O)[C@H]4O[C@H]4[C@]3(O)[C@H]2C1=O |  | inactive |  |  |  | Non-Toxic | 6000 | 6000 | 2700 | 2900 | 
9 | COC1=CC(=O)[C@H]2O[C@H]2[C@H]1O | inactive | inactive | inactive | inactive | inactive | Non-Toxic |  |  |  |  | inhibition at 100 µg/mL [21]: 75%; inhibition at 50 µg/mL [22]: 50%
10 | COC1=CC(=O)[C@](O)([C@H](C=C(C)C)OC(C)=O)C[C@H]1O | inactive | inactive | inactive | inactive | inactive | Non-Toxic |  |  |  |  | 
11 | COC1=C[C@@H](O)[C@H]2O[C@H]2C1=O |  |  |  |  |  |  |  |  | 1700 | 1600 | IC50 [12]: 3800 nM
